What was measured:
Type in all cases: cell-based
[1] = system: human adenocarcinoma cells; experiment: Recoding via quantification of pRB and P53, adenocarcinoma cells; conditions: Table 6, peptide in association with PET
Experimental: (§1) The cells were first fixed for 20 min with 4% paraformaldehyde/PBS at 4° C. After fixation, the cells were permeabilized in PBS containing 1% Triton X-100 for 15 min. Protein immunofluorescent visualization was performed by first treating the cells with 1% (v/v) specific monoclonal antibodies for 1 hour at 37° C. Then the samples were incubated with Alexa Fluor® 568 or 647 (F(ab′)2 fragment of IgG(H+L)) during 30 min at room temperature. The cell nuclei were counterstained in 20 ng/mL DAPI for 10 min at room temperature.
For this type of quantification the freeware image analysis ImageJ® software was used. The raw image was first converted to an 8-bit file, and then the unsharp mask feature was used (settings 1:0.2) to remove the image background (rolling ball radius 10). After smoothing, the resulting image, which appears similar to the original photomicrograph but with minimal background, was then converted to a binary image by setting a threshold. Threshold values were determined empirically by selecting a setting, which gave the most accurate binary image for a subset of randomly selected photomicrographs. The cell area was determined by manual delineation on raw fluorescent images. Total contact area and mean contact area per cell were calculated by “analyse particules” in ImageJ®. A minimum of 50 cells per condition were analyzed. […]

[2] = system: human osteosarcoma cells, MG63; experiment: Tumor cell recoding via quantification of pRB and p53 (immunofluorescence staining, ImageJ); conditions: MG63, quantification of pRB
Experimental: as §1
For this type of quantification the freeware image analysis ImageJ® software was used. The raw image was first converted to an 8-bit file, and then the unsharp mask feature was used (settings 1:0.2) to remove the image background (rolling ball radius 10). After smoothing, the resulting image, which appears similar to the original photomicrograph but with minimal background, was then converted to a binary image by setting a threshold. Threshold values were determined empirically by selecting a setting, which gave the most accurate binary image for a subset of randomly selected photomicrographs. The cell area was determined by manual delineation on raw fluorescent images. Total contact area and mean contact area per cell were calculated by “analyse particules” in ImageJ®. A minimum of 50 cells per condition were analyzed.
Neoplastic cells (in this example osteosarcoma cells) were cultured on pharmaceutical associations comprising PET as a bioactive carrier and one of GFR-binding compounds of SEQ ID NO: 11 to 14, 24 to 26 and 51 to 63. A rapid (24 hours) decrease of the tumor markers was observed (FIG. 7). The adhesion checkpoint then activates the tumor suppressor proteins p53 and pRB. […]

[3] = system: Smad1/5/8 signaling pathway; experiment: Growth factor receptor activation: western blot quantification of phospho-smad1/5/8; conditions: Table 4; human osteosarcoma cells MG63; quantification of western blots of phospho-smad1/5/8
Experimental: After 24 hours of culture, cells were permeabilized (10% SDS, 25 mM NaCl, 10 nM pepstatin and 10 nM leupeptin in distilled water and loading buffer), boiled for 10 minutes and resolved by reducing PAGE (Invitrogen). Proteins were transferred onto nitrocellulose, blocked, and labeled with HRP-conjugated antibodies (Invitrogen). Integrin αv, α5, +3, α4, β1, β3, β5 and […] were blotted by treating the nitrocellulose with monoclonal anti-integrin (extracellular domain) αv, α5, +3, α4, β1, β3, β5 and β6 antibodies (Santa Cruz Biotechnology). Phosphor-Smad1/5/8 was blotted by treating the nitrocellulose with monoclonal anti-p-Smad1/5/8 (Santa Cruz Biotechnology). For all of the experiments the western blot was performed in triplicate, along with an additional blot for actin and coomassie blue staining to ensure constant protein load among samples.

## AASKASSVPQRLRSVKVAKV (Non-cyclic GFR-binding peptide) [SEQ ID NO: 235]
[1]
  P53 (%): 40%
  pRB (%): 26%

## GIPEPSSTPTKMSPINMLYF (Non-cyclic GFR-binding peptide) [SEQ ID NO: 94]
[2]; Table 4
  pRB (%): 9%
[2]; Table 5
  pRB (%): 9%
[3]
  p-Smad1/5/8 (%): 39%

## SSVKSQPSRVHHSPISILFI (Non-cyclic GFR-binding peptide) [SEQ ID NO: 97]
[2]; Table 4
  pRB (%): 14%
[2]; Table 5
  pRB (%): 14%
[3]
  p-Smad1/5/8 (%): 39%

## TQVKMRPVQVRKI (Non-cyclic GFR-binding peptide) [SEQ ID NO: 92]
[2]; Table 4
  pRB (%): 8%
[2]; Table 5
  pRB (%): 8%
[3]
  p-Smad1/5/8 (%): 44%

## YVPKPSSTPTKLSPINMLYF (Non-cyclic GFR-binding peptide) [SEQ ID NO: 66]
[2]; Table 4
  pRB (%): 8%
[2]; Table 5
  pRB (%): 8%
[3]
  p-Smad1/5/8 (%): 38%

## ASAAPSSVPQALSSLSILFF (Non-cyclic GFR-binding peptide) [SEQ ID NO: 67]
[2]; Table 4
  pRB (%): 15%
[2]; Table 5
  pRB (%): 15%
[3]
  p-Smad1/5/8 (%): 38%

## KIPKASSVPAQLEPLPIVYY (Non-cyclic GFR-binding peptide) [SEQ ID NO: 229]
[1]
  P53 (%): 31%
  pRB (%): 23%

## NDEGLESVPTEESAISMLYL (Non-cyclic GFR-binding peptide) [SEQ ID NO: 96]
[2]; Table 4
  pRB (%): 22%
[2]; Table 5
  pRB (%): 22%
[3]
  p-Smad1/5/8 (%): 78%

## RVPSTSSAPTKMKPLSMLYV (Non-cyclic GFR-binding peptide) [SEQ ID NO: 227]
[1]
  P53 (%): 32%
  pRB (%): 14%

## KVGKASSVPTKLEPISILYL (Non-cyclic GFR-binding peptide) [SEQ ID NO: 71]
[2]; Table 4
  pRB (%): 17%
[2]; Table 5
  pRB (%): 17%
[3]
  p-Smad1/5/8 (%): 66%

## ASASPSSVSQDLEPLTILYY (Non-cyclic GFR-binding peptide) [SEQ ID NO: 78]
[2]; Table 4
  pRB (%): 18%
[2]; Table 5
  pRB (%): 18%
[3]
  p-Smad1/5/8 (%): 52%

## SIPKASSVPQELEPLPIVYY (Non-cyclic GFR-binding peptide) [SEQ ID NO: 76]
[2]; Table 4
  pRB (%): 8%
[2]; Table 5
  pRB (%): 8%
[3]
  p-Smad1/5/8 (%): 54%

## AASKASSSRVKMSPINVLYF (Non-cyclic GFR-binding peptide) [SEQ ID NO: 225]
[1]
  P53 (%): 25%
  pRB (%): 12%

## NDEGLESVPTEERSVKVAKV (Non-cyclic GFR-binding peptide) [SEQ ID NO: 91]
[2]; Table 4
  pRB (%): 12%
[2]; Table 5
  pRB (%): 12%
[3]
  p-Smad1/5/8 (%): 55%

## KIPKASSVPTKMKPLSVLYV (Non-cyclic GFR-binding peptide) [SEQ ID NO: 226]
[1]
  P53 (%): 31%
  pRB (%): 16%

## YVPKPSSAPTKLNAISVLYF (Non-cyclic GFR-binding peptide) [SEQ ID NO: 99]
[2]; Table 4
  pRB (%): 21%
[2]; Table 5
  pRB (%): 21%
[3]
  p-Smad1/5/8 (%): 66%

## AASKASSVPEKMRPVQTRKI (Non-cyclic GFR-binding peptide) [SEQ ID NO: 237]
[1]
  P53 (%): 42%
  pRB (%): 22%

## GIPEPSSVPQKMEPLPIVYY (Non-cyclic GFR-binding peptide) [SEQ ID NO: 75]
[2]; Table 4
  pRB (%): 10%
[2]; Table 5
  pRB (%): 10%
[3]
  p-Smad1/5/8 (%): 51%

## RVPSTSSVPAEESNITVQIM (Non-cyclic GFR-binding peptide) [SEQ ID NO: 234]
[1]
  P53 (%): 45%
  pRB (%): 22%

## KASKASSVPQKLEPLPIVYY (Non-cyclic GFR-binding peptide) [SEQ ID NO: 85]
[2]; Table 4
  pRB (%): 10%
[2]; Table 5
  pRB (%): 10%
[3]
  p-Smad1/5/8 (%): 22%

## STPPTSSTPTKMSNITTQIM (Non-cyclic GFR-binding peptide) [SEQ ID NO: 233]
[1]
  P53 (%): 43%
  pRB (%): 23%

## GIPEPSSAPVDMRPVQIRKI (Non-cyclic GFR-binding peptide) [SEQ ID NO: 238]
[1]
  P53 (%): 40%
  pRB (%): 23%

## KVGKASSVPQKLEPLPIVYY (Non-cyclic GFR-binding peptide) [SEQ ID NO: 84]
[2]; Table 4
  pRB (%): 9%
[2]; Table 5
  pRB (%): 9%
[3]
  p-Smad1/5/8 (%): 33%

## HVPKPSSAPTKLEPISILYL (Non-cyclic GFR-binding peptide) [SEQ ID NO: 100]
[2]; Table 4
  pRB (%): 19%
[2]; Table 5
  pRB (%): 19%
[3]
  p-Smad1/5/8 (%): 75%

## RNVQSRPTQVQLKPLSMLYV (Non-cyclic GFR-binding peptide) [SEQ ID NO: 73]
[2]; Table 4
  pRB (%): 16%
[2]; Table 5
  pRB (%): 16%
[3]
  p-Smad1/5/8 (%): 48%

## AVPKASSAPTKLEPISILYL (Non-cyclic GFR-binding peptide) [SEQ ID NO: 70]
[2]; Table 4
  pRB (%): 21%
[2]; Table 5
  pRB (%): 21%
[3]
  p-Smad1/5/8 (%): 67%

## STPPTSSVSQKMKPLSILYV (Non-cyclic GFR-binding peptide) [SEQ ID NO: 228]
[1]
  P53 (%): 26%
  pRB (%): 18%

## KIPKASSTQVRLRSVKTAKV (Non-cyclic GFR-binding peptide) [SEQ ID NO: 236]
[1]
  P53 (%): 37%
  pRB (%): 25%

## RVPSTSSAPTKTSATSVLYY (Non-cyclic GFR-binding peptide) [SEQ ID NO: 81]
[2]; Table 4
  pRB (%): 17%
[2]; Table 5
  pRB (%): 17%
[3]
  p-Smad1/5/8 (%): 34%

## ASASPSSVSQDLSSLSILFF (Non-cyclic GFR-binding peptide) [SEQ ID NO: 68]
[2]; Table 4
  pRB (%): 14%
[2]; Table 5
  pRB (%): 14%
[3]
  p-Smad1/5/8 (%): 40%

## RVPSTSSVPEKMEPLTMLYY (Non-cyclic GFR-binding peptide) [SEQ ID NO: 231]
[1]
  P53 (%): 22%
  pRB (%): 18%

## TVPKPSSAPTQLRSVKVAKV (Non-cyclic GFR-binding peptide) [SEQ ID NO: 83]
[2]; Table 4
  pRB (%): 12%
[2]; Table 5
  pRB (%): 12%
[3]
  p-Smad1/5/8 (%): 35%

## SSVKSQPSRVHHKPLSMLYV (Non-cyclic GFR-binding peptide) [SEQ ID NO: 72]
[2]; Table 4
  pRB (%): 19%
[2]; Table 5
  pRB (%): 19%
[3]
  p-Smad1/5/8 (%): 47%

## NDEGLESVPTEESSLSILFF (Non-cyclic GFR-binding peptide) [SEQ ID NO: 80]
[2]; Table 4
  pRB (%): 9%
[2]; Table 5
  pRB (%): 9%
[3]
  p-Smad1/5/8 (%): 27%

## ASAAPSSVPQALEPLTILYY (Non-cyclic GFR-binding peptide) [SEQ ID NO: 77]
[2]; Table 4
  pRB (%): 15%
[2]; Table 5
  pRB (%): 15%
[3]
  p-Smad1/5/8 (%): 55%

## VVPKPSSAPTQLEPISILYL (Non-cyclic GFR-binding peptide) [SEQ ID NO: 69]
[2]; Table 4
  pRB (%): 20%
[2]; Table 5
  pRB (%): 20%
[3]
  p-Smad1/5/8 (%): 39%

## SIPKASSTPTELSPINMLYF (Non-cyclic GFR-binding peptide) [SEQ ID NO: 64]
[2]; Table 4
  pRB (%): 23%
[2]; Table 5
  pRB (%): 23%
[3]
  p-Smad1/5/8 (%): 37%

## RNVQSRPTQVQLSPISILFI (Non-cyclic GFR-binding peptide) [SEQ ID NO: 98]
[2]; Table 4
  pRB (%): 17%
[2]; Table 5
  pRB (%): 17%
[3]
  p-Smad1/5/8 (%): 34%

## ASASPSSVPQDLRSVKVAKV (Non-cyclic GFR-binding peptide) [SEQ ID NO: 90]
[2]; Table 4
  pRB (%): 9%
[2]; Table 5
  pRB (%): 9%
[3]
  p-Smad1/5/8 (%): 56%

## GIPEPSSAPVEEEPLTTLYY (Non-cyclic GFR-binding peptide) [SEQ ID NO: 232]
[1]
  P53 (%): 21%
  pRB (%): 13%

## KIPKASSTPTELSPINMLYF (Non-cyclic GFR-binding peptide) [SEQ ID NO: 93]
[2]; Table 4
  pRB (%): 7%
[2]; Table 5
  pRB (%): 7%
[3]
  p-Smad1/5/8 (%): 47%

## VSQDLRSVKVAKV (Non-cyclic GFR-binding peptide) [SEQ ID NO: 89]
[2]; Table 4
  pRB (%): 17%
[2]; Table 5
  pRB (%): 17%
[3]
  p-Smad1/5/8 (%): 36%

## ASAAPSSAPTALSATSVLYY (Non-cyclic GFR-binding peptide) [SEQ ID NO: 82]
[2]; Table 4
  pRB (%): 19%
[2]; Table 5
  pRB (%): 19%
[3]
  p-Smad1/5/8 (%): 41%

## GIPEPSSAPVGQEPLPMVYY (Non-cyclic GFR-binding peptide) [SEQ ID NO: 230]
[1]
  P53 (%): 30%
  pRB (%): 19%

— patent publication US20220273759A1, “PHARMACEUTICAL ASSOCIATION FOR CONVERTING A NEOPLASTIC CELL INTO A NON-NEOPLASTIC CELL AND USES THEREOF” (HISTIDE AG, priority 2015, published 2022)
